This is an account of results in patent US4016193A, “Novel substituted phenylacetic acid derivatives and a process for preparing thereof” (Mitsubishi Yuka Pharmaceutical Co., Ltd., priority 1974, dated 1977).

In one data set the test system is carrageenin edema. Briefly: Anti-inflammatory activity: inhibition of carrageenin edema of the rat paw, oral. Format: in vivo, wistar male rats. To be noted: read-out: inhibiting rate; for inhibition in vivo at 100 mg/kg: 100 mg/kg orally; for inhibition in vivo at 100 mg/kg / inhibition in vivo at 12.5 mg/kg / inhibition in vivo at 25 mg/kg / inhibition in vivo at 50 mg/kg: rats, 4 hours after carrageenin; for inhibition in vivo at 12.5 mg/kg: 12.5 mg/kg orally; for inhibition in vivo at 25 mg/kg: 25 mg/kg orally; for inhibition in vivo at 50 mg/kg: 50 mg/kg orally. Here is the method: The anti-inflamatory activity is shown by inhibiting rate calculated from measurement of carrageenin edema intensity. Five wistar male rats having body weight of 120 - 180g are defined as one group and after fasted for 18 hours, the sample containing a 1% tragacanth solution such as is suspended so as to become 5 ml/kg was administered orally to the said group. Only the same volume of the 1% tragacanth solution was administered to the control group. After one hour, 0.05 ml of a 1% carrageenin (manufactured by Picnin-A, Pasco International Corp.) was injected subcutaneously to the plantar legion of right hind paw of rats. Before injection and after 4 hours of injection of carrageenin, the right hind paw volume was measured by means of paw volume measurement instrument manufactured by Ugo-Basile and an increase % of paw volume was calculated. The inhibiting rate was calculated from an increase ratio of the examined group against the central groups.

The subject of data set [1] is writhing syndrome caused by acetic acid. As to the kind of experiment: Analgesic activity, acetic acid writhing method, oral. The data set is classed as in vivo, dd origin male mice. To be noted: for ED50: Mus musculus, po, read-out: ED50 (analgesic activity); for activity ratio: ratio of ED50 values, methyl 3-nitro-4-allyloxyphenylacetate defined as 1. Here is the method: (b) The analgesic activity was measured by means of acetic and writhing
10dd origin male mice weighing 17 -
25g were used as one group after 18 hours of fasting. After oral
administration of the test compounds the frequencies of writhing syndrome
caused by intraperitoneal administration of 0.1 ml/10g of a 0.6% acetic
acid were measured for 20 minutes. The frequencies of writhing syndrome
which are below 50% of those of the control group were defined as
analgesic activity (+) and the ED50 values were calculated by means of
Litchfield-Wilcoxon method. The ED50 value of methyl
3-nitro-4-allyloxyphenylacetate is defined as 1 and the activity ratios of
the test compounds were expressed as ratio of ED50 values. The test
compounds were administered as a suspension such as are adjusted to be 0.1
ml/10g in a 1% tragacanth solution. A 1% tragacanth solution was
administered to the control group.
For orientation: Writhing tests count abdominal constrictions after an irritant is injected.

A further data set in a line: in vivo. To be noted: rat, po, orally, rats.
[2] abbreviates: orally, mice, 0.6% acetic acid i.p., Litchfield-Wilcoxon method.

Read-outs that look alike come from different tables or passages of the source. Bounds are passed on as bounds.

Regarding `C=CCOc1ccc(C(C)C(=O)O)cc1[N+](=O)[O-]` (stereo not shown) [2-(3-nitro-4-allyloxyphenyl)propionic acid], in the data set with carrageenin edema, the inhibition in vivo at 100 mg/kg came to 40.1%.
Same read-out and setting: with `C#CCOc1ccc(CC(=O)OC)cc1[N+](=O)[O-]` [Methyl 3-nitro-4-propargyloxyphenylacetate] the figure was 44.9%.
Turning to `C=CCOc1ccc(CC(N)=O)cc1[N+](=O)[O-]` [3-nitro-4-allyloxyphenylacetamide], the inhibition in vivo at 100 mg/kg with carrageenin edema turned out to be 37.7%.
As to `CCCCC1C(=O)N(c2ccccc2)N(c2ccccc2)C1=O` [Phenylbutazone], in the data set on carrageenin edema, the inhibition in vivo at 12.5 mg/kg is 14.1%, the inhibition in vivo at 25 mg/kg turned out to be 49.1% and the inhibition in vivo at 50 mg/kg was found to be 59.4%.
Consider `CC(=O)Oc1ccccc1C(=O)O` [Aspirin], for which, in data set [1], the ED50 (usually the midpoint of the dose-response relation) turned out to be 320 mg/kg and the activity ratio is listed as 0.09.
Regarding `C=CCOc1ccc(C(C)C(=O)OCC)cc1[N+](=O)[O-]` (stereo not shown) [Ethyl 2-(3-nitro-4-allyloxyphenyl)propionate], the inhibition in vivo at 100 mg/kg in the data set on carrageenin edema amounted to 55.5%.
Consider `C=CCOc1ccc(CC(=O)O)cc1Cl` [3-chloro-4-allyloxyphenylacetic acid], for which, in data set [1] (setting [2]), the median effective dose (ED50) stood at 56.8 mg/kg. Moreover, in the data set with carrageenin edema, the inhibition in vivo at 25 mg/kg turned out to be 47%, the inhibition in vivo at 50 mg/kg was found to be 51.8% and the inhibition in vivo at 100 mg/kg amounted to 62%.
Regarding `C#CCOc1ccc(CC(=O)O)cc1[N+](=O)[O-]` [3-Nitro-4-propargyloxyphenylacetic acid], in the data set on carrageenin edema, the inhibition in vivo at 50 mg/kg worked out at 28.8% and the inhibition in vivo at 100 mg/kg turned out to be 40.3%.
As to `Cc1c(N(C)C)c(=O)n(-c2ccccc2)n1C` [Aminopyrine], in data set [1] (setting [2]), the ED50 came out at 80 mg/kg. Besides, the activity ratio in data set [1] is reported as 0.38.
Take `COc1cc(C)nc(-n2nc(C)cc2OC)n1` [Mepirizole]: in the data set “in vivo” (female), the median lethal dose (LD50) (usually the dose at which mortality reaches 50%) was 971 mg/kg. In “in vivo” (male), this molecule came in with an LD50 of 1020 mg/kg. In data set [1] (setting [2]), the ED50 stood at 117 mg/kg. The activity ratio in data set [1] was determined as 0.26. In addition, in the data set with carrageenin edema, the inhibition in vivo at 25 mg/kg came to 19.5%, the inhibition in vivo at 50 mg/kg worked out at 51.8% and the inhibition in vivo at 100 mg/kg amounted to 52.7%.
For the molecule `C=CCOc1ccc(C(C)C(=O)OC)cc1[N+](=O)[O-]` (stereo not shown) [Methyl 2-(3-nitro-4-allyoxyphenyl)propionate], in the data set with carrageenin edema, the inhibition in vivo at 100 mg/kg was determined as 50.1%.
`C=CCOc1ccc(CC(=O)OC)cc1[N+](=O)[O-]` [Methyl 3-nitro-4-allyloxyphenylacetate] showed an LD50 in “in vivo” (female) above 3000 mg/kg. In addition, the 50% lethal dose (LD50) in “in vivo” (male) was above 3000 mg/kg. Besides, the ED50 in data set [1] (setting [2]) was 31 mg/kg. Also, in the data set with carrageenin edema, the inhibition in vivo at 12.5 mg/kg turned out to be 51.7% and the inhibition in vivo at 25 mg/kg amounted to 72.1%.
In “in vivo” (female), `C=CCOc1ccc(CC(=O)O)cc1[N+](=O)[O-]` [3-Nitro-4-allyloxyphenylacetic acid] returned an LD50 of 1360 mg/kg. For the same molecule, the LD50 in “in vivo” (male) was 1480 mg/kg. Also, the ED50 in data set [1] (setting [2]) worked out at 96 mg/kg. For the same molecule, in data set [1], the activity ratio is 0.32. In addition, in the data set on carrageenin edema, the inhibition in vivo at 12.5 mg/kg stood at 13.9%, the inhibition in vivo at 25 mg/kg was determined as 24.3% and the inhibition in vivo at 50 mg/kg was 66.6%.
For `COc1ccc2c(c1)c(CC(=O)O)c(C)n2C(=O)c1ccc(Cl)cc1` [Indomethacine], in the data set with carrageenin edema (4 h), the inhibition in vivo at 1 mg/kg was found to be 39.8%, the inhibition in vivo at 3 mg/kg is 46% and the inhibition in vivo at 9 mg/kg stood at 60.4%.
